Data reported in US20250120951A1, “CLEMIZOLE FORMULATION” (EPYGENIX THERAPEUTICS, INC., priority 2021, published 2025).
Values joined by “and” are separate entries in the source; they are usually repeats but may differ in a detail not shown here. Equal entries are not always repeated. Structures can show the parent of a compound that is named as a salt. Where two headings read alike, the source gives them in different places.

Tests used:
[1] = Solubility testing for clemizole HCl in solvent systems (Example 1); format: physicochemical
Description: Solubility testing for clemizole HCl in a compatible solvent system was conducted to identify a buffer system that solubilized the required concentration of clemizole HCl without any precipitation. […] Actual clemizole HCl solubility values in each of the solvent systems are described in Table 1.

[2] = Excipient compatibility: clemizole HCl assay and total related substances, 14 days at 50° C. (Example 4); format: physicochemical
Description: In an example, various excipients were examined at the 14-day time point (50° C.) to guide the decision on the choice of excipients to be used during formulation development. Table 5 below illustrates the stability of clemizole HCl at day 14 following incubation in the various formulations listed.
However, due to the poor solubility of ethyl parahydroxybenzoate, either a solubilizer such as PEG400, or a soluble form of ethyl parahydroxybenzoate, such as the sodium salt, would be required. Glycerol was compatible with clemizole HCl and may be used to improve the taste formulation.

## Clc1ccc(Cn2c(CN3CCCC3)nc3ccccc32)cc1 [clemizole HCl]
[1]; 0.1 M HCl, simulated gastric fluid, 0.1M HCl 100% w/w, read-out: Actual Solubility
  solubility: 11 mg/mL
[1]; Solutol HS15 solution, 40 °C, aqueous with cosolvent or surfactant or cyclodextrin, 20% w/w solution of Solutol HS15 at 40° C., read-out: solubility of clemizole HCl
  solubility: 36 mg/mL
[1]; citrate buffer, pH 4.5, aqueous buffer, pH 4.5 Citrate Buffer 100% w/w, read-out: Actual Solubility
  solubility: 12.7 mg/mL
[1]; citrate buffer, pH 4.5, aqueous with cosolvent or surfactant or cyclodextrin, pH 4.5 Citrate Buffer 79.5 / PEG400 20.0 / Sodium ascorbate 0.5 % w/w, read-out: Actual Solubility
  solubility: 9.29 mg/mL
[1]; citrate buffer, pH 4.5, aqueous with cosolvent or surfactant or cyclodextrin, pH 4.5 Citrate Buffer 80.0 / Glycerol 20.0 % w/w, read-out: Actual Solubility
  solubility: 13.5 mg/mL
[1]; citrate buffer, pH 4.5, aqueous with cosolvent or surfactant or cyclodextrin, pH 4.5 Citrate Buffer 80.0 / Propylene glycol 20.0 % w/w, read-out: Actual Solubility
  solubility: 11.4 mg/mL
[1]; citrate buffer, pH 4.5, aqueous with cosolvent or surfactant or cyclodextrin, pH 4.5 Citrate Buffer 90.0 / 2-Hydroxypropyl-β-cyclodextrin 10.0 % w/w, read-out: Actual Solubility
  solubility: 29.9 mg/mL
[1]; citrate buffer, pH 4.5, aqueous with cosolvent or surfactant or cyclodextrin, pH 4.5 Citrate Buffer 94.5 / Polysorbate 20 5.0 / Sodium ascorbate 0.5 % w/w, read-out: Actual Solubility
  solubility: 21.4 mg/mL
[1]; citrate buffer, pH 4.5, aqueous with cosolvent or surfactant or cyclodextrin, pH 4.5 Citrate Buffer 94.5 / Polysorbate 80 5.0 / Sodium ascorbate 0.5 % w/w, read-out: Actual Solubility
  solubility: 24.6 mg/mL
[1]; citrate buffer, pH 4.5, aqueous with cosolvent or surfactant or cyclodextrin, pH 4.5 Citrate Buffer 95.0 / Cremophor ELP 5.0 % w/w, read-out: Actual Solubility
  solubility: 19.1 mg/mL
[1]; citrate buffer, pH 4.5, aqueous with cosolvent or surfactant or cyclodextrin, pH 4.5 Citrate Buffer 95.0 / Cremophor RH40 5.0 % w/w, read-out: Actual Solubility
  solubility: 19.7 mg/mL
[1]; citrate buffer, pH 4.5, aqueous with cosolvent or surfactant or cyclodextrin, pH 4.5 Citrate Buffer 95.0 / Solutol HS15 5.0 % w/w, read-out: Actual Solubility
  solubility: 19.8 mg/mL
[1]; citrate buffer, pH 4.5, aqueous with cosolvent or surfactant or cyclodextrin, pH 4.5 Citrate Buffer 95.0 / TPGS 5.0 % w/w, read-out: Actual Solubility
  solubility: 25.9 mg/mL
[1]; freeze-thawing
  effect of freeze-thawing on clemizole HCl solubility: does not appear to reduce
[1]; phosphate buffer, pH 6.8, aqueous buffer, pH 6.8 Phosphate Buffer 100% w/w, read-out: Actual Solubility
  solubility: 0.06 mg/mL
[1]; phosphate buffer, pH 6.8, aqueous with cosolvent or surfactant or cyclodextrin, pH 6.8 Phosphate Buffer 79.5 / PEG400 20.0 / Sodium ascorbate 0.5 % w/w, read-out: Actual Solubility
  solubility: 0.28 mg/mL
[1]; phosphate buffer, pH 6.8, aqueous with cosolvent or surfactant or cyclodextrin, pH 6.8 Phosphate Buffer 80.0 / Glycerol 20.0 % w/w, read-out: Actual Solubility
  solubility: 0.07 mg/mL
[1]; phosphate buffer, pH 6.8, aqueous with cosolvent or surfactant or cyclodextrin, pH 6.8 Phosphate Buffer 80.0 / Propylene glycol 20.0 % w/w, read-out: Actual Solubility
  solubility: 0.08 mg/mL
[2]; 50° C., 14 day, mean
  Assay Results (%) 50° C., 14 day Mean: 100.9%
[2]; 50° C., 14 day, single replicates, listed as API only, HCl
  Assay Results (%) 50° C., 14 day: 101.1% and 100.7%
[2]; Initial, mean
  Assay Results (%) Initial Mean: 100.5%
[2]; Initial, single replicates, listed as API only, HCl
  Assay Results (%) Initial: 100.0% and 101.0%
